Key:
[1] = system: TSLP promoter (TSLP-Luc construct); assay: TSLP-Luc transient transfection luciferase reporter assay in LAD 2 cells; type: cell-based, human; conditions: A23187 500 ng/ml alone
Text: (§1) A calcium ionophore alone was also able to stimulate TSLP promoter activity.

[2] = system: TA-Luc (control construct); assay: TA-Luc control construct transient transfection luciferase reporter assay in LAD 2 cells; type: cell-based, human; conditions: A23187 500 ng/ml alone
Text: as §1

CNc1ccc2oc(C[C@H]3O[C@@]4(CC[C@H]3C)O[C@H]([C@H](C)C(=O)c3ccc[nH]3)[C@H](C)C[C@H]4C)nc2c1C(=O)O [A23187]
F/R luciferase activity, TSLP-Luc construct [1]: 171.0 units of F/R luciferase activity
F/R luciferase activity, control construct TA-Luc [2]: 29.6 units of F/R luciferase activity
